# Measured values reported in patent publication US20230147364A1, “PROPHYLACTIC OR THERAPEUTIC AGENT FOR RNA VIRUS-RELATED DISEASES” (priority 2020, published 2023).
# pIC50: −log10 of the molar value. Where a name gives a salt, the structure may show the parent alone.
# Key:
# [1] = tested on: Sendai virus (SeV); assay: microbe, parasite or virus in culture; assay type: cell-based; settings: for pIC50: Respirovirus muris, read-out: IC50, infection rate of SeV
# [2] = tested on: Sendai virus (SeV); assay type: cell-based; as to Score (number of EGFP-positive cells, value subjected to correction between batches): test concentration or dose not given here
# [3] = tested on: Ebola trVLP
# [4] = tested on: SARS-CoV-2; assay: microbe, parasite or virus in culture; assay type: cell-based; settings: for pIC50: Severe acute respiratory syndrome coronavirus 2, Vero C1008, read-out: IC50, infection rate of SARS-CoV-2
# [5] = tested on: VSV-G; assay type: cell-based, vesicular stomatitis virus
# [6] = tested on: VSVΔG-SARS2-S (pseudo-type VSV with SARS-CoV-2 spike protein); assay: microbe, parasite or virus in culture; assay type: cell-based; settings: Vesicular stomatitis virus, Vero C1008, 20 h, read-out: IC50, VSVΔG-SARS2-S infection
# [7] = tested on: pseudo-typed VSV having a SARS-CoV spike protein (SARS-CoV-S); assay: microbe, parasite or virus in culture; assay type: cell-based; settings: Vesicular stomatitis virus, Vero C1008, 20 h, read-out: IC50, infection with pseudo-typed VSV having SARS-CoV spike protein
# [8] = tested on: Ebola trVLP; assay: microbe, parasite or virus in culture; settings: Zaire ebolavirus, Huh-7, read-out: IC50, Ebola trVLP infection
compound,measurement,setting,value
CCOC(=O)C1=C(C)NC(C)=C(C(=O)OC)C1c1cccc(Cl)c1Cl (stereo not drawn) [Felodipine],"Score (number of EGFP-positive cells, value subjected to correction between batches)",[1],133.33
CC(CN1c2ccccc2Sc2ccccc21)N(C)C (stereo not drawn) [Promethazine hydrochloride],"Score (number of EGFP-positive cells, value subjected to correction between batches)",[1],231.88
"CC(c1cc2ccccc2s1)N(O)C(N)=O (stereo not drawn) [Zileuton, zileuton]",amount of the EGFP mRNA,[2],significantly and markedly reduced
same,antiviral activity against Ebola trVLP infection,[3],did not show significant antiviral activity
same,effect on virus: Ebola virus,[3],−
same,"Score (number of EGFP-positive cells, value subjected to correction between batches)",[1],214.49
same,effect on virus: Sendai virus,[1],+
same,pIC50,[1],5.35
same,antiviral activity against SARS-CoV-2 infection,[4],did not exhibit significant antiviral activity
same,effect on virus: SARS-CoV-2,[4],−
"CN(C)CCOc1ccc(/C(=C(/CCCl)c2ccccc2)c2ccccc2)cc1 [Toremifene, toremifene]",infection-inhibiting effect on VSV-G,[5],no infection-inhibiting effect was observed
same,pIC50,[6],5.28
same,pIC50,[7],5.14
same,antiviral activity against Ebola trVLP infection,[3],inhibit the Ebola trVLP infection
same,effect on virus: Ebola virus,[3],+
same,effect on virus: SARS-CoV-2,[4],+
same,pIC50,[4],5.00
CNCCCC12CCC(c3ccccc31)c1ccccc12 [Maprotiline hydrochloride],"Score (number of EGFP-positive cells, value subjected to correction between batches)",[1],191.30
O=C(O)COCCN1CCN(C(c2ccccc2)c2ccc(Cl)cc2)CC1 (stereo not drawn) [Cetirizine dihydrochloride],"Score (number of EGFP-positive cells, value subjected to correction between batches)",[1],202.89
CC(C)(C)[C@]1(O)CCN2Cc3cccc4c3[C@H](c3ccccc3CC4)[C@@H]2C1.Cl [(+)-Butaclamol hydrochloride],"Score (number of EGFP-positive cells, value subjected to correction between batches)",[1],226.08
COc1ccc(Cl)cc1C(=O)NCCc1ccc(S(=O)(=O)NC(=O)NC2CCCCC2)cc1 [Glibenclamide],"Score (number of EGFP-positive cells, value subjected to correction between batches)",[1],202.89
Cc1ccc(-c2cc(C(F)(F)F)nn2-c2ccc(S(N)(=O)=O)cc2)cc1 [Celecoxib],"Score (number of EGFP-positive cells, value subjected to correction between batches)",[1],208.69
Ifenprodil tartrate,"Score (number of EGFP-positive cells, value subjected to correction between batches)",[1],214.49
"CCc1ccc(CCOc2ccc(CC3SC(=O)NC3=O)cc2)nc1 (stereo not drawn) [Pioglitazone, pioglitazone]",amount of the EGFP mRNA,[2],significantly and markedly reduced
same,antiviral activity against Ebola trVLP infection,[3],did not show significant antiviral activity
same,effect on virus: Ebola virus,[3],−
same,"Score (number of EGFP-positive cells, value subjected to correction between batches)",[1],173.91
same,effect on virus: Sendai virus,[1],+
same,pIC50,[1],5.31
same,antiviral activity against SARS-CoV-2 infection,[4],partially suppressed virus infection at a high concentration
same,effect on virus: SARS-CoV-2,[4],+
COc1ccc(CN(CCN(C)C)c2ccccn2)cc1 [Pyrilamine maleate],"Score (number of EGFP-positive cells, value subjected to correction between batches)",[1],185.50
"CC/C(=C(\c1ccccc1)c1ccc(OCCN(C)C)cc1)c1ccccc1 [Tamoxifen, tamoxifen]",antiviral activity against Ebola trVLP infection,[3],inhibit the Ebola trVLP infection
same,effect on virus: Ebola virus,[3],+
same,effect on virus: SARS-CoV-2,[4],+
COc1cc(C(=O)NS(=O)(=O)c2ccccc2C)ccc1Cc1cn(C)c2ccc(NC(=O)OC3CCCC3)cc12 [Zafirlukast],"Score (number of EGFP-positive cells, value subjected to correction between batches)",[1],156.52
O=C(c1ccc(OCCN2CCCCC2)cc1)c1c(-c2ccc(O)cc2)sc2cc(O)ccc12 [Raloxifene hydrochloride],"Score (number of EGFP-positive cells, value subjected to correction between batches)",[1],57.97
CN(C)CCC=C1c2ccccc2CCc2ccccc21 [Amitriptyline hydrochloride],"Score (number of EGFP-positive cells, value subjected to correction between batches)",[1],192.61
OCCOCCN1CCN(C2=Nc3ccccc3Sc3ccccc32)CC1 [Quetiapine fumarate],"Score (number of EGFP-positive cells, value subjected to correction between batches)",[1],133.33
O=C1CCc2ccc(OCCCCN3CCN(c4cccc(Cl)c4Cl)CC3)cc2N1 [Aripiprazole],"Score (number of EGFP-positive cells, value subjected to correction between batches)",[1],86.95
COc1ccccc1N1CCN(CC(O)COc2cccc3ccccc23)CC1 (stereo not drawn) [Naftopidil],"Score (number of EGFP-positive cells, value subjected to correction between batches)",[1],214.49
CC(CCc1ccc(O)cc1)NCCc1ccc(O)c(O)c1 (stereo not drawn) [Dobutamine hydrochloride],"Score (number of EGFP-positive cells, value subjected to correction between batches)",[1],69.56
CSc1ccc2c(c1)N(CCC1CCCCN1C)c1ccccc1S2 (stereo not drawn) [Thioridazine hydrochloride],"Score (number of EGFP-positive cells, value subjected to correction between batches)",[1],217.78
CN(C)CCCN1c2ccccc2Sc2ccc(Cl)cc21 [Chlorpromazine hydrochloride],"Score (number of EGFP-positive cells, value subjected to correction between batches)",[1],75.36
"CO[C@H]1/C=C/O[C@@]2(C)Oc3c(C)c(O)c4c(O)c(c(/C=N/N5CCN(C)CC5)c(O)c4c3C2=O)NC(=O)/C(C)=C\C=C\[C@H](C)[C@H](O)[C@@H](C)[C@@H](O)[C@@H](C)[C@H](OC(C)=O)[C@@H]1C [Rifampin, rifampin]",amount of the EGFP mRNA,[2],significantly and markedly reduced
same,antiviral activity against Ebola trVLP infection,[3],did not show significant antiviral activity
same,effect on virus: Ebola virus,[3],−
same,"Score (number of EGFP-positive cells, value subjected to correction between batches)",[1],75.36
same,effect on virus: Sendai virus,[1],+
same,pIC50,[1],5.41
same,antiviral activity against SARS-CoV-2 infection,[4],"tended to reduce the infection rate of SARS-CoV-2, which was not significant"
same,effect on virus: SARS-CoV-2,[4],N.S.
Nc1cc(N2CCCCC2)nc(N)[n+]1[O-] [Minoxidil],"Score (number of EGFP-positive cells, value subjected to correction between batches)",[1],226.08
O=c1[nH]c2ccccc2n1CCCN1CCC(n2c(=O)[nH]c3cc(Cl)ccc32)CC1 [Domperidone],"Score (number of EGFP-positive cells, value subjected to correction between batches)",[1],139.13
O=C(NCCO[N+](=O)[O-])c1cccnc1 [Nicorandil],"Score (number of EGFP-positive cells, value subjected to correction between batches)",[1],185.50
CS(=O)(=O)c1ccc(C2=C(c3ccccc3)C(=O)OC2)cc1 [Rofecoxib],"Score (number of EGFP-positive cells, value subjected to correction between batches)",[1],202.89
CCCCC[C@H](O)/C=C/[C@H]1[C@H](O)CC(=O)[C@@H]1C/C=C\CCCC(=O)O [Prostaglandin E2],"Score (number of EGFP-positive cells, value subjected to correction between batches)",[1],208.69
"CCN(CC)CCOc1ccc(/C(=C(/Cl)c2ccccc2)c2ccccc2)cc1 [Clomifene, clomifene]",infection-inhibiting effect on VSV-G,[5],no infection-inhibiting effect was observed
same,antiviral activity against Ebola trVLP infection,[3],inhibit the Ebola trVLP infection
same,effect on virus: Ebola virus,[3],+
same,effect on virus: SARS-CoV-2,[4],+
CCC(CC)COC(=O)[C@H](C)N[P@](=O)(OC[C@H]1O[C@@](C#N)(c2ccc3c(N)ncnn23)[C@H](O)[C@@H]1O)Oc1ccccc1 [remdesivir],amount of the EGFP mRNA,[2],substantially not detected
same,pIC50,[1],7.11
same,pIC50,[8],6.92
same,pIC50,[4],6.05
"O=C(c1ccc(OCCN2CCCCC2)cc1)c1c(-c2ccc(O)cc2)sc2cc(O)ccc12 [Raloxifene, raloxifene]",infection-inhibiting effect on VSV-G,[5],no infection-inhibiting effect was observed
same,pIC50,[6],5.41
same,amount of the EGFP mRNA,[2],significantly and markedly reduced
same,pIC50,[7],5.39
same,effect on virus: Ebola virus,[3],+
same,infection-inhibiting activity versus cytotoxicity (cell viability),[3],significant dissociation between the infection-inhibiting activity and the cytotoxicity
same,effect on virus: Sendai virus,[1],+
same,pIC50,[1],5.37
same,pIC50,[8],6.06
same,effect on virus: SARS-CoV-2,[4],+
same,pIC50,[4],5.15
"O=C(Nc1cccc2c(=O)cc(-c3nnn[nH]3)oc12)c1ccc(OCCCCc2ccccc2)cc1 [Pranlukast, pranlukast]",amount of the EGFP mRNA,[2],significantly and markedly reduced
same,antiviral activity against Ebola trVLP infection,[3],did not show significant antiviral activity
same,effect on virus: Ebola virus,[3],−
same,"Score (number of EGFP-positive cells, value subjected to correction between batches)",[1],162.31
same,effect on virus: Sendai virus,[1],+
same,pIC50,[1],5.30
same,antiviral activity against SARS-CoV-2 infection,[4],"tended to reduce the infection rate of SARS-CoV-2, which was not significant"
same,effect on virus: SARS-CoV-2,[4],N.S.
CC(COc1ccccc1)N(CCCl)Cc1ccccc1 (stereo not drawn) [Phenoxybenzamine hydrochloride],"Score (number of EGFP-positive cells, value subjected to correction between batches)",[1],162.31
CC1=NS(=O)(=O)c2cc(Cl)ccc2N1 [Diazoxide],"Score (number of EGFP-positive cells, value subjected to correction between batches)",[1],173.91
CC1=C(CC(=O)O)c2cc(F)ccc2/C1=C\c1ccc([S+](C)[O-])cc1 (stereo not drawn) [Sulindac],"Score (number of EGFP-positive cells, value subjected to correction between batches)",[1],127.53
